Laboratory results from patent US20210369853A1, “TARGETED PROTEASE DEGRADATION PLATFORM” (EUBULUS BIOTHERAPEUTICS INC., priority 2018, published 2021).
Where two headings read alike, the source gives them in different places.

What was measured:
Type in all cases: cell-based
[1] = tested on: Human Colon Cancer HCT-116; assay: Cell proliferation experiment (Alarm blue, 72 h, EC50); details: HCT116 cells
Summary of the method: (§1)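 Duplicate wells per concentration, 5-fold dilution series, 72 h continuous exposure of log-phase cells; read-out Alamar blue fluorescence, EC50 derived by curve fit with minimum, maximum and slope terms.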

[2] = tested on: Human Monocytic Leukemia MV4-11; assay: as above; details: Homo sapiens, MV4-11, MV4;11 cells
Summary of the method: as §1

[3] = tested on: Human Small Cell Lung Cancer NCI-H82; assay: as above; details: Homo sapiens, NCI-H82; NCIH82 cells
Summary of the method: as §1

BRD4 = target: T1, BRD4 (Homo sapiens, UniProt O60885); assay: Western blot, protein degradation (DC50)
T1 construct: endogenous in cells
Protocol: (§2) Cells were treated with the compound for a period of time, after that the cells were collected by centrifugation. After washing with PBS, the cells were lysed by adding RIPA buffer; the cell lysate were added to the loading buffer and then appropriate volume were taken and slowly added to the corresponding wells of the gel plate, and run the SDS-PAGE gel (4%-12%). After running the gel, transferred to the PVDF membrane and sealed with 5% skimmed milk powder at room temperature for 1 hour. The membrane was placed in the primary antibody diluted with 5% skimmed milk powder and shaked slowly overnight at 4° C. After incubation with primary antibody, the membrane was washed 3 times using a TBST shaker; added secondary antibody diluted with 5% skimmed milk powder corresponding to the primary antibody, and shaked slowly at room temperature for 1 hour. After incubation with secondary antibody, the membrane was washed 3 times using the TBST shaker again. The PVDF membrane was flatted in the cassette, the strip was evenly infiltrated with ECL developer solution, and placed in ChemDoc XRS+ gel imager for taking pictures. The intensity of protein bands was analyzed quantitatively using ImageJ software.

PLK1 = target: T2, PLK1 (Homo sapiens, UniProt P53350); assay: Western blot, protein degradation (DC50)
T2 construct: endogenous in cells
T2 sequence (P53350 whole entry): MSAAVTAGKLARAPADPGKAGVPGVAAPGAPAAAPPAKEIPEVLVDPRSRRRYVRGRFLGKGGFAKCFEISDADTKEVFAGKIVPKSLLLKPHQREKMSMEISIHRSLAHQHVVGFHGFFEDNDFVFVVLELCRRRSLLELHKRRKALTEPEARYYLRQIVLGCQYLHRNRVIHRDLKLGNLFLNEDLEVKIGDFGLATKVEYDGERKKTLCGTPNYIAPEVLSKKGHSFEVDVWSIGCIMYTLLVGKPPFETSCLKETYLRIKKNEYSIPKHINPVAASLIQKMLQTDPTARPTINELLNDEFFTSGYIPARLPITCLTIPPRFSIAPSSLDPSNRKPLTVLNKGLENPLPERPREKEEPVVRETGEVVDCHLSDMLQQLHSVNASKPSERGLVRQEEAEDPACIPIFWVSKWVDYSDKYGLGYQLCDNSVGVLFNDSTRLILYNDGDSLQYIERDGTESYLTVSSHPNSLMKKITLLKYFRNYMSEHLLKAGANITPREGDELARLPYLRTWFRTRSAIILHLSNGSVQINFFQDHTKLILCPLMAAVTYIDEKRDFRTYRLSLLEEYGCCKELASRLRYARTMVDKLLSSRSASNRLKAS
Protocol: as §2

Human Colon Cancer HT-29 = assay: Cell proliferation experiment (Alarm blue, 72 h, EC50); details: HT-29 cells
Summary of the method: as §1

[4] = tested on: Human cervical adenocarcinoma cells Hela; assay: as above
Summary of the method: as §1

[5] = tested on: Human Acute Myelomonocytic Leukemia HL-60; assay: as above; details: HL-60 cells
Summary of the method: as §1

[6] = tested on: Human Breast Cancer MDA-MB-231; assay: as above; details: MDA-MB-231 cells
Summary of the method: as §1

[7] = tested on: Human Glioma Cells U-87 MG; assay: as above; details: Homo sapiens; U-87MG cells
Summary of the method: as §1

[8] = tested on: Human Monocytic Leukemia THP-1; assay: as above; details: THP-1 cells
Summary of the method: as §1

[9] = 6 h, western blot, read-out: BRD4 DC50 (6 h)
[10] = 6 h, western blot, read-out: PLK1 DC50 (6 h)

Row | EC50 ([1]; Homo sapiens, HCT-116) [nM] | EC50 [2] [nM] | EC50 [3] [nM] | EC50 ([4]; Homo sapiens) [nM] | Structure (SMILES) | other results
1 | > 1000 | 10 to 100 | > 1000 |  | CC[C@@H]1C(=O)N(C)c2cnc(Nc3ccc(C(=O)NCCOCCNCCCC(=O)Nc4cccc5c4CN(C4CCC(=O)NC4=O)C5=O)cc3OC)nc2N1Cc1ccc(Br)cc1 (stereo partly drawn) [UB-180625] | DC50 (BRD4; 24 h, read-out: BRD4 DC50 (24 h)): < 10 nM; DC50 (PLK1; 24 h, read-out: PLK1 DC50 (24 h)): < 10 nM
2 | 100 to 1000 | < 10 | > 1000 |  | CC[C@@H]1C(=O)N(C)c2cnc(Nc3ccc(C(=O)NCCOCCOCCOCC(=O)Nc4cccc5c4CN(C4CCC(=O)NC4=O)C5=O)cc3OC)nc2N1Cc1ccc(Br)cc1 (stereo partly drawn) [UB-180566] | DC50 (BRD4; [9]): < 10 nM; DC50 (PLK1; [10]): < 10 nM
3 | > 1000 | 10 to 100 | > 1000 |  | CC[C@@H]1C(=O)N(C)c2cnc(Nc3ccc(C(=O)NCCCNCCCCCCCC(=O)Nc4cccc5c4CN(C4CCC(=O)NC4=O)C5=O)cc3OC)nc2N1Cc1ccc(Br)cc1 (stereo partly drawn) [UB-180628] | 
4 |  | 10 to 100 |  |  | CC[C@@H]1C(=O)N(C)c2cnc(Nc3ccc(C(=O)NCc4cn(CCOCCNCCC(=O)Nc5cccc6c5CN(C5CCC(=O)NC5=O)C6=O)nn4)cc3OC)nc2N1C1CCCC1 (stereo partly drawn) [UB-180707] | EC50 (Human Colon Cancer HT-29; Homo sapiens): 100 to 1000 nM
5 |  | 10 to 100 |  | > 1000 | CC[C@@H]1c2c(C#N)ncn2-c2cnc(Nc3ccc(C(=O)NCCOCCOCCOCCOCC(=O)N[C@H](C(=O)N4C[C@H](O)C[C@H]4C(=O)NCc4ccc(-c5scnc5C)cc4)C(C)(C)C)cc3OC)nc2N1C1CCCC1 [UB-180525] | DC50 (BRD4; [9]): > 1000 nM; DC50 (PLK1; [10]): > 1000 nM
6 | > 1000 | 10 to 100 | > 1000 |  | CC[C@@H]1C(=O)N(C)c2cnc(Nc3ccc(C(=O)NCCCNCCCCCC(=O)Nc4cccc5c4CN(C4CCC(=O)NC4=O)C5=O)cc3OC)nc2N1Cc1ccc(Br)cc1 (stereo partly drawn) [UB-180639] | 
7 | 100 to 1000 | 10 to 100 | > 1000 |  | CC[C@@H]1C(=O)N(C)c2cnc(Nc3ccc(C(=O)NCCOCCNCCCCC(=O)Nc4cccc5c4CN(C4CCC(=O)NC4=O)C5=O)cc3OC)nc2N1Cc1ccc(Br)cc1 (stereo partly drawn) [UB-180645] | 
8 | > 1000 | < 10 | > 1000 | 100 to 1000 | CC[C@@H]1C(=O)N(C)c2cnc(Nc3ccc(C(=O)NCCOCCOCCOCCNCCC(=O)Nc4cccc5c4CN(C4CCC(=O)NC4=O)C5=O)cc3OC)nc2N1Cc1ccc(Br)cc1 (stereo partly drawn) [UB-180634] | EC50 [5]: 100 to 1000 nM; EC50 ([6]; Homo sapiens): 100 to 1000 nM; EC50 (Human Colon Cancer HT-29; Homo sapiens): 100 to 1000 nM; EC50 [7]: 100 to 1000 nM; EC50 [8]: 100 to 1000 nM
9 | > 1000 | 10 to 100 | > 1000 |  | CC[C@@H]1C(=O)N(C)c2cnc(Nc3ccc(C(=O)NCCCNCCCC(=O)Nc4cccc5c4CN(C4CCC(=O)NC4=O)C5=O)cc3OC)nc2N1Cc1ccc(Br)cc1 (stereo partly drawn) [UB-180637] | 
10 | 100 to 1000 | 10 to 100 | > 1000 |  | CC[C@@H]1C(=O)N(C)c2cnc(Nc3ccc(C(=O)NCCOCCNCCCCCC(=O)Nc4cccc5c4CN(C4CCC(=O)NC4=O)C5=O)cc3OC)nc2N1Cc1ccc(Br)cc1 (stereo partly drawn) [UB-180643] | 
11 |  |  |  |  | CC(OC(=O)N(CCOCCOCCOCCNC(=O)[C@]1(Cc2cccc(Nc3nccs3)n2)CC[C@@H](Oc2cccc(Cl)c2F)CC1)CC(=O)Nc1cccc2c1CN(C1CCC(=O)NC1=O)C2=O)C(C)SSC[C@H](NC(=O)[C@@H](CC(=O)O)NC(=O)[C@@H](CC(=O)O)NC(=O)[C@@H](CCCNC(=N)N)NC(=O)[C@@H](CC(=O)O)NC(=O)CC[C@H](NC(=O)c1ccc(NCc2cnc3nc(N)[nH]c(=O)c3n2)cc1)C(=O)O)C(=O)O (stereo partly drawn) [UB-180839] | EC50 [6]: 100 to 1000 nM; EC50 [1]: 100 to 1000 nM; EC50 (Human Colon Cancer HT-29): 100 to 1000 nM; EC50 [4]: 100 to 1000 nM
12 |  | > 1000 |  | > 1000 | CC[C@@H]1c2nncn2-c2cnc(Nc3ccc(C(=O)NCCOCCOCCOCCC(=O)Nc4cccc5c4CN(C4CCC(=O)NC4=O)C5=O)cc3OC)nc2N1C1CCCC1 (stereo partly drawn) [UB-180549] | 
13 | 100 to 1000 | 10 to 100 | > 1000 | 100 to 1000 | CC[C@@H]1C(=O)N(C)c2cnc(Nc3ccc(C(=O)NCCCNCCCCC(=O)Nc4cccc5c4CN(C4CCC(=O)NC4=O)C5=O)cc3OC)nc2N1C1CCCC1 (stereo partly drawn) [UB-180658] | EC50 [5]: 100 to 1000 nM; EC50 ([6]; Homo sapiens): 100 to 1000 nM; EC50 (Human Colon Cancer HT-29; Homo sapiens): 100 to 1000 nM; EC50 [7]: 100 to 1000 nM; EC50 [8]: 100 to 1000 nM; DC50 (BRD4; [9]): 10 to 100 nM; DC50 (PLK1; [10]): 10 to 100 nM
